# Legend:
# Format in all cases: in vivo, human
# [1] = system: serum growth hormone (GH); experiment: Phase 1 study Part 1: PD, serum GH concentration; conditions: for serum GH concentration, peak, mean (SD): 1 h post-dose; for serum GH concentration, mean (SD): pre-dose
# From the text: • Part 1: To evaluate PD (GH response) of the new LUM-201 formulation as capsule (test). • Part 2: To measure PD (GH response) to LUM-201 administered as capsule (test) in fasted versus fed state. PD Results (pt 1): Individual serum growth hormone (GH) concentration time data were obtained for each subject and treatment cohort. […] Following the administration of LUM-201, the serum GH concentration values increased post dose as expected. At pre-dose, mean (SD) serum GH concentration values were 0.2970 (0.7404) ng/mL for Treatment A, 0.2052 (0.3174) ng/mL for Treatment B, 0.5303 (1.354) ng/mL for Treatment C, and 0.1454 (0.1981) ng/mL for Treatment D. The serum GH concentration value peaked at 1 h post-dose for all treatment groups. 17.10 (15.07) ng/mL in Treatment A, 16.55 (16.36) ng/mL in Treatment B, 17.30 (17.05) ng/mL in Treatment C, and 18.01 (14.32) ng/mL in Treatment D. The trend of serum GH concentration changes in all 4 treatment groups was similar, except for the serum GH concentration in Treatment A that approached the peak concentration sooner, relative to the other treatments, at 0.5 h post-dose.
# [2] = system: serum IGF-1; experiment: Phase 1 study Part 2: PD, serum IGF-1 concentration fasted vs fed
# Description: The serum IGF-1 concentration values remained stable over the sampling time interval post dose. At pre-dose, mean (SD) serum […] concentration values were 209.2 (54.28) ng/mL for Treatment A and 188.8 (26.11) ng/mL for Treatment B. At 24 h post-dose, the serum GH concentration value peaked at 244.7 (37.66) ng/mL in Treatment A and 220.8 (43.50) ng/mL in Treatment B.
# [3] = system: serum growth hormone (GH); experiment: Phase 1 study Part 2: PD, serum GH concentration fasted vs fed; conditions: for serum GH concentration, mean (SD): pre-dose
# From the text: • Part 1: To evaluate PD (GH response) of the new LUM-201 formulation as capsule (test). • Part 2: To measure PD (GH response) to LUM-201 administered as capsule (test) in fasted versus fed state. PD Results (pt 2): Following the administration of LUM-201, the serum GH concentration values increased post dose. At pre-dose, mean (SD) serum GH concentration values were 0.2121 (0.2192) ng/mL in Treatment A and 0.1088 (0.09518) ng/mL in Treatment B. The serum GH concentration value peaked at 22.18 (22.24) ng/mL in Treatment A at 1 h post-dose and 14.10 (13.48) ng/mL in Treatment B at 1.5 h post-dose. The serum GH concentration values in Treatment A were consistently higher compared to Treatment B over time and approached the peak concentration sooner at 1 h post-dose.
# [4] = system: serum IGF-1; experiment: Phase 1 study Part 1: PD, serum IGF-1 concentration
# Description: The serum IGF-1 concentration values remained stable over the sampling time interval post dose. At pre-dose, mean (SD) serum IGF-1 concentration values were 200.9 (50.41) ng/mL for Treatment A, 192.6 (50.55) ng/mL for Treatment B, 192.5 (47.67) ng/mL for Treatment C, and 195.8 (47.16) ng/mL for Treatment D. At 24 h post-dose, the serum concentration values rose to 224.7 (48.70) ng/mL in Treatment A, 224.2 (50.24) ng/mL in Treatment B, 230.4 (60.81) ng/mL in Treatment C, and 223.7 (56.75) ng/mL in Treatment D.
# [5] = Part 1, Treatment A: five 18 mg tablets (90 mg), fasted
# [6] = Part 1, Treatment B: 85.3 mg whole capsule, fasted
# [7] = Part 1, Treatment C: 85.3 mg capsule contents (dry), fasted
# [8] = Part 1, Treatment D: 85.3 mg capsule contents in banana puree
# [9] = Part 2, Treatment A (fasted state) and Treatment B (fed state)
structure (smiles),measurement,setting,value
"CC(C)(N)C(=O)N[C@H](COCc1ccccc1)C(=O)N1CCC2(CC1)CN(S(C)(=O)=O)c1ccccc12 [LUM-201, N-[1(R)-[(1,2-dihydro-1-methanesulfonylspiro[3H-indole-3,4′-piperdin]-yl)carbonyl]-2-(phenylmethyloxy)ethyl]-2-amino-2-methylpropanamide methanesulfonate]","serum GH concentration, peak, mean (SD)",[1]; [5],17.10 (15.07) ng/mL
same,"serum GH concentration, peak, mean (SD)",[1]; [6],16.55 (16.36) ng/mL
same,"serum GH concentration, peak, mean (SD)",[1]; [7],17.30 (17.05) ng/mL
same,"serum GH concentration, peak, mean (SD)",[1]; [8],18.01 (14.32) ng/mL
same,"PD parameters, capsule versus tablets","[1]; Part 1, serum GH and serum IGF-1, 4 treatment groups",no observed differences
same,"serum GH concentration, mean (SD)",[1]; [5],0.2970 (0.7404) ng/mL
same,"serum GH concentration, mean (SD)",[1]; [6],0.2052 (0.3174) ng/mL
same,"serum GH concentration, mean (SD)",[1]; [7],0.5303 (1.354) ng/mL
same,"serum GH concentration, mean (SD)",[1]; [8],0.1454 (0.1981) ng/mL
same,serum IGF-1 concentration,"[2]; 24 h post-dose, Part 2, Treatment A: 85.3 mg capsule, fasted",244.7 (37.66) ng/mL
same,serum IGF-1 concentration,"[2]; 24 h post-dose, Part 2, Treatment B: 85.3 mg capsule after high-fat meal",220.8 (43.50) ng/mL
same,"serum IGF-1 concentration values and trend, fasted vs fed",[2]; [9],comparable
same,serum IGF-1 concentration,"[2]; pre-dose, Part 2, Treatment A: 85.3 mg capsule, fasted",209.2 (54.28) ng/mL
same,serum IGF-1 concentration,"[2]; pre-dose, Part 2, Treatment B: 85.3 mg capsule after high-fat meal",188.8 (26.11) ng/mL
same,"serum GH concentration, peak, mean (SD)","[3]; 1 h post-dose, Part 2, Treatment A: 85.3 mg capsule, fasted",22.18 (22.24) ng/mL
same,"serum GH concentration, peak, mean (SD)","[3]; 1.5 h post-dose, Part 2, Treatment B: 85.3 mg capsule after high-fat meal",14.10 (13.48) ng/mL
same,"serum GH concentrations 1.5 hours after administration, fasted vs fed",[3]; [9],comparable
same,"serum GH concentration, mean (SD)","[3]; Part 2, Treatment A: 85.3 mg capsule, fasted",0.2121 (0.2192) ng/mL
same,"serum GH concentration, mean (SD)","[3]; Part 2, Treatment B: 85.3 mg capsule after high-fat meal",0.1088 (0.09518) ng/mL
same,"serum IGF-1 concentration, mean (SD)","[4]; 24 h post-dose, Part 1, Treatment A: five 18 mg tablets (90 mg), fasted",224.7 (48.70) ng/mL
same,"serum IGF-1 concentration, mean (SD)","[4]; 24 h post-dose, Part 1, Treatment B: 85.3 mg whole capsule, fasted",224.2 (50.24) ng/mL
same,"serum IGF-1 concentration, mean (SD)","[4]; 24 h post-dose, Part 1, Treatment C: 85.3 mg capsule contents (dry), fasted",230.4 (60.81) ng/mL
same,"serum IGF-1 concentration, mean (SD)","[4]; 24 h post-dose, Part 1, Treatment D: 85.3 mg capsule contents in banana puree",223.7 (56.75) ng/mL
same,"serum IGF-1 concentration, mean (SD)","[4]; pre-dose, Part 1, Treatment A: five 18 mg tablets (90 mg), fasted",200.9 (50.41) ng/mL
same,"serum IGF-1 concentration, mean (SD)","[4]; pre-dose, Part 1, Treatment B: 85.3 mg whole capsule, fasted",192.6 (50.55) ng/mL
same,"serum IGF-1 concentration, mean (SD)","[4]; pre-dose, Part 1, Treatment C: 85.3 mg capsule contents (dry), fasted",192.5 (47.67) ng/mL
same,"serum IGF-1 concentration, mean (SD)","[4]; pre-dose, Part 1, Treatment D: 85.3 mg capsule contents in banana puree",195.8 (47.16) ng/mL
